Test results reported in patent US7470715B2, “Estrogen modulators” (Pfizer Inc., priority 2005, dated 2008).

What was measured:
[1] = target: ligand binding domain of the estrogen receptor beta chain (ERβLBD) that contained a point mutation at amino acid residue 418 (pm418) (Homo sapiens, UniProt Q92731); assay: ER agonist cell assay (ERβ), Huh-7 co-transfection, luciferase; type: cell-based; settings: for EC50: Huh-7 cells co-transfected with pG5luc and ERβLBD(pm418), overnight incubation, luciferase; for ERβ % of Max E2 Response: percent of the maximum estradiol fold change, Huh-7, pG5luc and ERβLBD(pm418)
Protocol: (§1) The compounds ability to mimic the effects of estrogen on the estrogen receptor were determined in a whole cell assay as described immediately below.
(§2) Experimental Procedure for ER Agonist Cell Assay
(§3) • Cell line and plasmids: The human hepatoma cell line Huh-7 was used for co-transfections. Cells were maintained in culture medium and split when they reached 80-90% confluency. Three plasmids were routinely used in the assay. pG5luc contained the firefly luciferase gene and was obtained from Promega. […] Cell Culture Media and Reagents:
(§4) Culture medium: DMEM (phenol red free), 10% charcoal treated HyClone serum, 1% L-glutamine, and 1% penicillin/streptomycin
(§5) Transfection medium: DMEM (phenol red free) and 10% charcoal treated HyClone serum
(§6) Luciferase reagents: Dual-Glo Luciferase Kit (Promega cat #E2980) was used for determination of luciferase activity.
(§7) Transient transfections were preformed using the lipophilic reagent FuGENE 6 (Roche). Cells were split and seeded at 7.2×10^6/150 cm^2 flask in 20 mL of transfection medium. 5-6 hrs later cells were co-transfected with either pG5luc and ERαLBD or pG5luc and ERβLBD(pm418). Transfected cells grew overnight and were then used the next day.
(§8) Cells transfected 24 hrs earlier were harvested, counted, and seeded in wells containing compound at a density of 1×10^4 cells/well. […] Cells were incubated overnight at 37° C. and 5% CO2 in the presence of compound. The following day medium was aspirated from the wells and 100 ul of Dual-Glo™ Luciferase Reagent were added to each well. Plates were incubated at room temperature for 20 minutes and firefly luminescence was measured on a luminometer. Next, 50 ul of Dual-Gbo™ Stop & Glo® Reagent were added to each well and after 20 minutes at room temperature the Renilla luminescence was measured on a luminometer. Values from each well were normalized by dividing the firefly luminescence by the Renilla luminescence. Estradiol was used as the standard and run in each assay. The fold induction over background for each compound was compared to the maximum fold induction for estradiol in each assay. […] Those compounds that were not tested, or the data was unavailable are marked as NT.

[2] = target: T1, ligand binding domain of the estrogen receptor alpha chain (ERαLBD) (Homo sapiens, UniProt P03372); assay: ER agonist cell assay (ERα), Huh-7 co-transfection, luciferase; type: cell-based; settings: for EC50: Huh-7 cells co-transfected with pG5luc and ERαLBD, overnight incubation, luciferase; for ERα % of Max E2 Response: percent of the maximum estradiol fold change, Huh-7, pG5luc and ERαLBD
T1 construct: expressed in transfected cells; host or cells: Huh-7 human hepatoma cells, transient transfection with FuGENE 6
T1 sequence (P03372 311-547 limits assumed): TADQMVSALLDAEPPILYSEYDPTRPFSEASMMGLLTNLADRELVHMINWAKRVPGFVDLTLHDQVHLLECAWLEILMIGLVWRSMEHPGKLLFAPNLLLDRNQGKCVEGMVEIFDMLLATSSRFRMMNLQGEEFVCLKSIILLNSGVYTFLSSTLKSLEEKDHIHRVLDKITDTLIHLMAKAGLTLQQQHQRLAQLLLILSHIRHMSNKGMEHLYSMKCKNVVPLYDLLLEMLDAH
Protocol: as §1, §2, §3, §4, §5, §6, §7, §8

Structure (SMILES) | EC50 [1] [nM] | ERβ % of Max E2 Response [1] [%] | EC50 [2] [nM] | ERα % of Max E2 Response [2] [%]
COc1cccc(-c2nnc(C3(c4onc(-c5ccc(O)cc5)c4-c4ccccc4)CC3)o2)c1 [Example 123, 4-(5-{1-[5-(3-methoxyphenyl)-1,3,4-oxadiazol-2-yl]cyclopropyl}-4-phenylisoxazol-3-yl)phenol] | > 10000 | >0.658 | 46.9 | 35.9
CC[C@@H](NCC1(c2onc(-c3ccc(O)cc3)c2-c2ccccc2)CC1)c1ccccc1 [Example 26, 4-[4-Phenyl-5-(1-{[(1R)-1-phenyl-propylamino]-methyl}-cyclopropyl)-isoxazol-3-yl]-phenol] |  | 1.03 | 66 | 20.9
CC(C)(C)COC(=O)C1(c2onc(-c3ccc(O)cc3)c2-c2ccccc2)CC1 [Example 93, 1-[3-(4-Hydroxy-phenyl)-4-phenyl-isoxazol-5-yl]-cyclopropanecarboxylic acid 2,2-dimethyl-propyl ester] | > 10000 | >0.813 | 33.8 | 20.4
CNCC1(c2onc(-c3ccc(O)cc3)c2-c2ccccc2)CC1 [Example 103, 4-[5-(1-methylaminomethyl-cyclopropyl)-4-phenyl-isoxazol-3-yl]-phenol] |  | 1.21 |  | 10.2
Oc1ccc(-c2noc(C3(COCC(F)(F)F)CC3)c2-c2ccccc2)cc1 [Example 11, 4-{4-Phenyl-5-[1-(2,2,2-trifluoro-ethoxymethyl)-cyclopropyl]-isoxazol-3-yl}-phenol] | 14.7 | 1.98 | 171 | 23.4
Oc1ccc(-c2noc(C3(CNc4cccc(C(F)(F)F)c4)CC3)c2-c2ccccc2)cc1 [Example 29, 4-(4-Phenyl-5-{1-[(3-trifluoromethyl-phenylamino)-methyl]-cyclopropyl}-isoxazol-3-yl)-phenol] |  | 0.601 |  | 11.4
CCC(=O)OCC1(c2onc(-c3ccc(O)cc3)c2-c2ccccc2)CC1 [Example 57] | 137 | 112 | 245 | 71.9
Oc1ccc(-c2nnc(C3(c4onc(-c5ccc(O)cc5)c4-c4ccccc4)CC3)o2)cc1 [Example 124, 4-(5-{1-[5-(4-hydroxyphenyl)-1,3,4-oxadiazol-2-yl]cyclopropyl}-4-phenylisoxazol-3-yl)phenol] | > 10000 | >0.539 | 152 | 24.4
CC(=O)C1(c2onc(-c3ccc(O)cc3)c2-c2ccccc2)CC1 [Example 101, 1-{1-[3-(4-Hydroxy-phenyl)-4-phenyl-isoxazol-5-yl]-cyclopropyl}-ethanone] |  | 13.6 | 122 | 58.3
COCC(=O)OCC1(c2onc(-c3ccc(O)cc3)c2-c2ccccc2)CC1 [Example 53] | 71.1 | 79 | 45.6 | 85.4
CCCCOC(=O)C1(c2onc(-c3ccc(O)cc3)c2-c2ccccc2)CC1 [Example 94, 1-[3-(4-Hydroxy-phenyl)-4-phenyl-isoxazol-5-yl]-cyclopropanecarboxylic acid butyl ester] | > 10000 | >0.800 | 29.3 | 24.3
COc1ncccc1OCC1(c2onc(-c3ccc(O)cc3)c2-c2ccccc2)CC1 [Example 13, 4-{5-[1-(2-Methoxy-pyridin-3-yloxymethyl)-cyclopropyl]-4-phenyl-isoxazol-3-yl}-phenol] |  | 0.552 |  | 19
Oc1ccc(-c2noc(C3(c4nnc(-c5cccc(O)c5)o4)CC3)c2-c2ccccc2)cc1 [Example 125, 3-(5-{1-[3-(4-hydroxyphenyl)-4-phenylisoxazol-5-yl]cyclopropyl}-1,3,4-oxadiazol-2-yl)phenol] | > 10000 | >0.535 | 419 | 22.1
Oc1ccc(-c2noc(C3(CN4CCOCC4)CC3)c2-c2ccccc2)cc1 [Example 31, 4-[5-(1-Morpholin-4-ylmethyl-cyclopropyl)-4-phenyl-isoxazol-3-yl]-phenol] | 151 | 1.35 | 26.9 | 30
Oc1ccc(-c2noc(C3(c4nnc(-c5ccc(O)cc5O)o4)CC3)c2-c2ccccc2)cc1 [Example 118, 4-(5-{1-[3-(4-hydroxyphenyl)-4-phenylisoxazol-5-yl]cyclopropyl}-1,3,4-oxadiazol-2-yl)benzene-1,3-diol] | > 10000 | >0.789 | 25.1 | 15
CSCC1(c2onc(-c3ccc(O)cc3)c2-c2ccccc2)CC1 [Example 38, 4-[5-(1-Methylsulfanylmethyl-cyclopropyl)-4-phenyl-isoxazol-3-yl]-phenol] | 749 | 6.6 | 1130 | 11.4
CCOC(=O)C1(c2onc(-c3ccc(O)c(F)c3)c2-c2ccccc2)CC1 [Example 97, 1-[3-(3-Fluoro-4-hydroxy-phenyl)-4-phenyl-isoxazol-5-yl]-cyclopropanecarboxylic acid ethyl ester] |  | 1.08 |  | 19.7
CC(=O)OCC1(c2onc(-c3ccc(O)cc3)c2-c2ccccc2)CC1 [Example 54] | 108 | 65.8 | 38.8 | 60.4

The remaining molecules from weak to strong by EC50 [2], led by results:

EC50 [1] [nM] | ERβ % of Max E2 Response [1] [%] | EC50 [2] [nM] | ERα % of Max E2 Response [2] [%] | Structure (SMILES)
> 10000 | >1.04 | 57.2 | 19.7 | O=C(OCc1ccccc1)C1(c2onc(-c3ccc(O)cc3)c2-c2ccccc2)CC1 [Example 92, 1-[3-(4-Hydroxy-phenyl)-4-phenyl-isoxazol-5-yl]-cyclopropanecarboxylic acid benzyl ester]
 | 2.37 | 44.3 | 63.2 | Oc1ccc(-c2noc(C3(C(O)c4ccccc4)CC3)c2-c2ccccc2)cc1 (racemic) [Example 16, (±)-4-{5-[1-(Hydroxy-phenyl-methyl)-cyclopropyl]-4-phenyl-isoxazol-3-yl}-phenol]
198 | 6.17 | 37.7 | 51.7 | N#CCC1(c2onc(-c3ccc(O)cc3)c2-c2ccccc2)CC1 [Example 42, {1-[3-(4-Hydroxy-phenyl)-4-phenyl-isoxazol-5-yl]-cyclopropyl}-acetonitrile]
> 10000 | >3.41 | 29.4 | 29.2 | COCCOC(=O)C1(c2onc(-c3ccc(O)cc3)c2-c2ccccc2)CC1 [Example 88, 1-[3-(4-Hydroxy-phenyl)-4-phenyl-isoxazol-5-yl]-cyclopropanecarboxylic acid 2-methoxy-ethyl ester]
197 | 1.18 | 17.7 | 15.1 | COCOCC1(c2onc(-c3ccc(O)cc3)c2-c2ccccc2)CC1 [Example 10, 4-[5-(1-Methoxymethoxymethyl-cyclopropyl)-4-phenyl-isoxazol-3-yl]-phenol]
> 10000 | >0.860 | 12.6 | 30.9 | CC(C)C(C)NCC1(c2onc(-c3ccc(O)cc3)c2-c2ccccc2)CC1 (racemic) [Example 24, (±)-4-(5-{1-[(1,2-Dimethyl-propylamino)-methyl]-cyclopropyl}-4-phenyl-isoxazol-3-yl)-phenol]
30.6 | 3 | 11.1 | 42.1 | Cc1noc(C)c1C(=O)OCC1(c2onc(-c3ccc(O)cc3)c2-c2ccccc2)CC1 [Example 56]
23.6 | 32.6 | 5.7 | 55.8 | CC(C)CC(=O)OCC1(c2onc(-c3ccc(O)cc3)c2-c2ccccc2)CC1 [Example 55]
